The numbers were not newly measured in US20210338702A1, “A teniposide injection with high dilution stability and preparation method thereof” (JIANGSU LINGHANG BIOLOGICAL TECHNOLOGY CO., LTD., priority 2018, published 2021), which cites them from elsewhere.

The conditions of data set [1]: compared with the same type of drug etoposide.

Regarding `COc1cc([C@@H]2c3cc4c(cc3[C@@H](O[C@@H]3O[C@@H]5CO[C@@H](c6cccs6)O[C@H]5[C@H](O)[C@H]3O)[C@H]3COC(=O)[C@H]23)OCO4)cc(OC)c1O` [Teniposide], the Solubility in water result is “almost insoluble in water”. For the same compound, the “Biological activity relative to etoposide” value in data set [1] is given as 5-10 times.
